Test results from PMC3585840 (Drugs in R&D, 2012).
Where two headings read alike, the source gives them in different places. Values belong to the compound of their own block, whether it stands above or below them.

Key:
[1] = Plasma pharmacokinetics, rising multiple-dose study; format: in vivo, human
[2] = format: in vivo, human
[3] = Safety and tolerability; format: in vivo, human
[4] = system: urinary levels of norepinephrine, dopamine, epinephrine and homovanillic acid; assay: Urinary catecholamine excretion; format: in vivo, human; conditions: for decrease of urinary excretion of norepinephrine at day 10 in relation to day 1: 24-hour urine
[5] = Supine blood pressure and ECG-measured heart rate; format: in vivo, human; conditions: for decrease of supine DBP Emax in relation to day 1 / decrease of supine DBP AUCEC in relation to day 1: repeated dosing
[6] = cited from earlier work
[7] = healthy subjects; cited from earlier work
[8] = system: spontaneously hypertensive rats (SHR); conditions: cited from earlier work
[9] = system: DβH; conditions: cited from earlier work
[10] = etamicastat 25–600 mg once daily for 10 days

days of dosing until steady-state plasma concentrations were attained ([1]; all dose groups 25–600 mg once daily): up to 9 days
linearity of pharmacokinetics ([1]; dose range 25–600 mg): linear pharmacokinetics
day at which steady state was reached (trough plasma concentrations) ([1]; etamicastat 200 mg once daily): 9 days
day at which steady state was reached (trough plasma concentrations) ([1]; etamicastat 400 mg once daily): 8 days
effect of NAT1 phenotype on etamicastat pharmacokinetics ([1]; etamicastat 25–600 mg): No relevant effect
half-life ([1]; male, human, plasma, oral, mean apparent t1/2 following the first dose, range over etamicastat 25–600 mg, plasma): 9 to 15 h
mean observed accumulation ratio (RO) ([1]; range over etamicastat 25–600 mg once daily for 10 days): 1.3–1.9
time after dosing at which maximum concentration (Cmax) was reached ([1]; range over etamicastat 25–600 mg once daily, plasma): 1 to 3 h
day at which steady state was reached (trough plasma concentrations) ([1]; remaining dose groups): < 6 days
urinary excretion rate ([2]; first dose, etamicastat 25 mg): 0.3 ± 0.1 mg/h
urinary excretion rate ([2]; first dose, etamicastat 600 mg): 8.5 ± 3.2 mg/h
urinary excretion rate ([2]; last dose, etamicastat 25 mg): 0.4 ± 0.2 mg/h
urinary excretion rate ([2]; last dose, etamicastat 600 mg): 10.6 ± 2.8 mg/h
CL renal ([2]; male, human, urine and plasma, po): 198 to 267 mL/min
SMILES: Cl.NCCc1c[nH]c(=S)n1[C@H]1COc2c(F)cc(F)cc2C1 [Etamicastat, (R)-5-(2-aminoethyl)-1-(6,8-difluorochroman-3-yl)-1,3-dihydroimidazole-2-thione hydrochloride]
subjects reporting diarrhea as an AE ([3]; 600 mg etamicastat group): 83%
clinical laboratory evaluations [3, 10]: no clinically significant abnormality
intensity of adverse events [3, 10]: mild to moderate
serious adverse events [3, 10]: no serious AEs
tolerability ([3]; etamicastat up to 600 mg once daily for 10 days): generally well tolerated
change in urinary excretion of homovanillic acid, epinephrine and dopamine ([4]; day 1 to day 10, all dose groups): No relevant changes
decrease in norepinephrine urinary excretion ([4]; doses of etamicastat 100 mg and above, day 10 vs day 1): 32–36%
decrease of urinary excretion of norepinephrine at day 10 in relation to day 1 ([4]; etamicastat 25 mg once daily): 24%
decrease of urinary excretion of norepinephrine at day 10 in relation to day 1 ([4]; etamicastat 50 mg once daily): 18%
decrease of urinary excretion of norepinephrine at day 10 in relation to day 1 ([4]; etamicastat 100 mg once daily): 36%
decrease of urinary excretion of norepinephrine at day 10 in relation to day 1 ([4]; etamicastat 200 mg once daily): 34%
decrease of urinary excretion of norepinephrine at day 10 in relation to day 1 ([4]; etamicastat 400 mg once daily): 32%
decrease of urinary excretion of norepinephrine at day 10 in relation to day 1 ([4]; etamicastat 600 mg once daily): 34%
decrease of supine DBP Emax in relation to day 1 ([5]; etamicastat 100 mg, p < 0.01): 5.6 mmHg
decrease of supine DBP AUCEC in relation to day 1 ([5]; etamicastat 100 mg, p < 0.05): 223 mmHg · h
decrease of supine DBP AUCEC in relation to day 1 ([5]; etamicastat 200 mg, p < 0.05): 193 mmHg · h
decrease of supine DBP Emax in relation to day 1 ([5]; etamicastat 200 mg, p < 0.05): 5.9 mmHg
change in SBP and HR ([5]; following repeated dosing, any dose level): did not significantly change
changes in SBP, DBP or HR ([5]; following the first dose, etamicastat 25–600 mg): no significant changes
time of maximum plasma concentrations (Cmax) after dosing ([6]; single dose 2–1200 mg): 1 to 3 h
tolerability ([6]; single doses 2–1200 mg): well tolerated at all the investigated dose levels
longer elimination half-life (t1/2) ([6]; single etamicastat doses ≥100 mg): 16 to 20 h
effect of food on absorption [7]: delayed by the presence of food
effect of food on extent of systemic exposure (AUC) [7]: no significant effect
blood pressure and norepinephrine urinary excretion ([8]; chronically administered in drinking water, SHR rats): significantly reduced
urinary excretion of dopamine ([8]; chronically administered in drinking water, only in SHR rats): increased significantly
systolic and diastolic blood pressure (but not the heart rate) ([8]; oral administration, SHR rats, dose-dependent, not observed in normotensive control rats): decreased

SMILES: NCc1c[nH]c(=S)n1[C@H]1CCc2c(F)cc(F)cc2C1 [Nepicastat]
potency as DβH inhibitor versus first- and second-generation inhibitors [9]: much greater potency
